Target: JAK1 (Homo sapiens (Human), UniProt P23458)
Experiment: Analysis of JAK1 activity inhibition ability (ADP-Glo Kinase Assay)
Format: biochemical
Settings: JAK1 enzyme, ADP-Glo luminescence, ATP 250 uM, IRS-itide substrate, 30° C. 40 minutes; read-out: IC50
Experimental: Test Example 1: Analysis of JAK1 Activity Inhibition Ability of Compound of Formula 1 (ADP-Glo™ Kinase Assay)
A JAK inhibition ability of a compound according to the present invention was identified as follows.
A control material and a test material were prepared for each concentration, in such a way that they were diluted by means of DMSO. At the same time, ATP (250 uM) and JAK substrate (JAK1, IRS-itide 40 ng/mL) were prepared, in such a way that they were diluted by means of kinase buffer (40 mM Tris-HCl pH 7.5, 20 mM MgCl2, 0.5 mg/mL BSA, 50 uM DTT).
A test drug for each concentration, substrate, ATP and JAK enzyme were mixed in an eppendorf tube, and reacted in a 30° C. incubator for 40 minutes.
ADP-Glo™ reagent contained in ADP-Glo™ Kinase Enzyme System (Promega, USA, V9571) was added into each eppendorf tube, and reacted in a 30° C. incubator for 40 minutes. A kinase detection reagent contained in ADP-Go™ Kinase Enzyme System was inserted into the eppendorf tube, then an integration time was set to 1 second by using Wallac Victor 2™, then luminescence was measured, and then JAKs phosphorylation inhibition ability of the test material was analyzed. The concentration of the compound, which causes 50% of the JAK enzyme activity inhibition in comparison With the control group, was determined as IC50 (nM) of an inhibitor, wherein the results thereof are shown in a following table 1.

Chain of JAK1 (P23458 whole entry): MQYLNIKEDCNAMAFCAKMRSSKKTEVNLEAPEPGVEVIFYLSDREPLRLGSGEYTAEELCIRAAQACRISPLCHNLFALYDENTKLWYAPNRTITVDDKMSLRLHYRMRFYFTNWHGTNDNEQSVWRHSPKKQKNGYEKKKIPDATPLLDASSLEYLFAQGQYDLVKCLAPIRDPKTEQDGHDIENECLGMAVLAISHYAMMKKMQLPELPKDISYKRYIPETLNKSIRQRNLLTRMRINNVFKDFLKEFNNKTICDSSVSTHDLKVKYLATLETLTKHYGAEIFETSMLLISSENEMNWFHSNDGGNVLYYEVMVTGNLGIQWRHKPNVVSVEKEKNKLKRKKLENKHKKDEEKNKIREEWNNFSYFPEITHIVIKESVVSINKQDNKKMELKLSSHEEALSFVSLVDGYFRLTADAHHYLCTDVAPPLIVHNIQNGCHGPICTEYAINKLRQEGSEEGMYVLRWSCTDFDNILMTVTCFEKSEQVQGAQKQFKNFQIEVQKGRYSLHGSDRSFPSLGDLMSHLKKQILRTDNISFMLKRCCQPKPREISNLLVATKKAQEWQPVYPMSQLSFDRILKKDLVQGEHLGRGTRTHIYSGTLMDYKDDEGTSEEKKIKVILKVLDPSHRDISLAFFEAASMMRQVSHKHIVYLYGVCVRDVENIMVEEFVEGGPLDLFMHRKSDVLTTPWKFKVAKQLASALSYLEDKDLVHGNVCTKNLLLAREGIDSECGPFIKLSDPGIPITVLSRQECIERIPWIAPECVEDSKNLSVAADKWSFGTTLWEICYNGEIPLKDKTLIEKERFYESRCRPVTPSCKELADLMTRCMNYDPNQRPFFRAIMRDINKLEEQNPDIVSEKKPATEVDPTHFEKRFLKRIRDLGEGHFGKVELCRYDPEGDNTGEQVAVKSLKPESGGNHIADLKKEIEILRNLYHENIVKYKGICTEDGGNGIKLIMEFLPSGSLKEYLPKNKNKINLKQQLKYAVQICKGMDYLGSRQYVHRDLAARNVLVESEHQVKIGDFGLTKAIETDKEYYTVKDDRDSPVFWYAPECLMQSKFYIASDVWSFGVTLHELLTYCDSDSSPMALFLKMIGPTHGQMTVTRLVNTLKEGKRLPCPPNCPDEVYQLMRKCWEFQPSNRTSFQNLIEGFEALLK

Row | Compound | IC50 [nM]
1 | N#CCC1(N2CC=C(c3cc(NC(=O)C4CC4)nc4[nH]ccc34)CC2)CN(C2CCN(C(=O)c3nc(C(F)(F)F)cs3)CC2)C1 [Example 621, N-(4-(1-(3-(cyanomethyl)-1-(1-(4-(trifluoromethyl)thiazole-2-carbonyl)piperidin-4-yl)azetidin-3-yl)-1,2,3,6-tetrahydropyridin-4-yl)-1H-pyrrolo[2,3-b]pyridin-6-yl)cyclopropanecarboxamide] | 20 to 200
2 | O=C(Nc1cc(C2=CCC(NC3CN(C(=O)c4cc(F)cc(F)c4)C3)CC2)c2cc[nH]c2n1)C1CC1 (stereo not drawn) [Example 495, N-(4-(4-((1-(3,5-difluorobenzoyl)azetidin-3-yl)amino)cyclohex-1-en-1-yl)-1H-pyrrolo[2,3-b]pyridin-6-yl)cyclopropanecarboxamide] | 20 to 200
3 | O=C(Nc1cc(-c2ccc(OS(=O)(=O)CC3CCOC3)cc2)c2cc[nH]c2n1)C1CC1 (stereo not drawn) [Example 638, 4-(6-(cyclopropanecarboxamido)-1H-pyrrolo[2,3-b]pyridin-4-yl)phenyl (tetrahydrofuran-3-yl)methanesulfonate] | 20 to 200
4 | O=C(Nc1cc(-c2ccc(NS(=O)(=O)N3CCCC3)c(F)c2)c2cc[nH]c2n1)C1CC1 [Example 225, N-(4-(3-fluoro-4-(pyrrolidine-1-sulfonamido)phenyl)-1H-pyrrolo[2,3-b]pyridin-6-yl)cyclopropanecarboxamide] | < 20
5 | O=C(Nc1cc(N2CCN(C[C@@H]3CC3(F)F)CC2)c2cc[nH]c2n1)C1CC1 [Example 699, (S)—N-(4-(4-((2,2-difluorocyclopropyl)methyl)piperazin-1-yl)-1H-pyrrolo[2,3-b]pyridin-6-yl)cyclopropanecarboxamide] | 20 to 200
6 | CCS(=O)(=O)Nc1ccc(-c2cc(NC(=O)C3CC3)nc3[nH]c(C)cc23)cc1 [Example 74, N-(4-(4-(ethylsulfonamido)phenyl)-2-methyl-1H-pyrrolo[2,3-b]pyridin-6-yl)cyclopropanecarboxamide] | > 200
7 | CCCS(=O)(=O)N1CCN(C(=O)Cc2ccc(-c3cc(NC(=O)C4CC4)nc4[nH]ccc34)cc2)CC1 [Example 564, N-(4-(4-(2-oxo-2-(4-(propylsulfonyl)piperazin-1-yl)ethyl)phenyl)-1H-pyrrolo[2,3-b]pyridin-6-yl)cyclopropanecarboxamide] | 20 to 200
8 | COc1ccc(CC(=O)N2CC=C(c3cc(NC(=O)C4CC4)nc4[nH]ccc34)C(C)C2)cc1 (stereo not drawn) [Example 341, N-(4-(1-(2-(4-methoxyphenyl)acetyl)-3-methyl-1,2,3,6-tetrahydropyridin-4-yl)-1H-pyrrolo[2,3-b]pyridin-6-yl)cyclopropanecarboxamide] | > 200
9 | O=C(Nc1cc(C2=CC3CCC(C2)N3S(=O)(=O)c2ccc(F)c(F)c2)c2cc[nH]c2n1)C1CC1 (stereo not drawn) [Example 178, N-(4-(8-((3,4-difluorophenyl)sulfonyl)-8-azabicyclo[3.2.1]oct-2-en-3-yl)-1H-pyrrolo[2,3-b]pyridin-6-yl)cyclopropanecarboxamide] | 20 to 200
10 | Cc1c(NS(=O)(=O)C2CC2)ccc(-c2cc(NC(=O)C3CC3)nc3[nH]ccc23)c1C [Example 133, N-(4-(4-(cyclopropanesulfonamido)-2,3-dimethylphenyl)-1H-pyrrolo[2,3-b]pyridin-6-yl)cyclopropanecarboxamide] | < 20
11 | O=C(Nc1cc(-c2ccc(NS(=O)(=O)c3ccc4c(c3)OCCO4)cc2)c2cc[nH]c2n1)C1CC1 [Example 38, N-(4-(4-((2,3-dihydrobenzo[b][1,4]dioxine)-6-sulfonamido)phenyl)-1H-pyrrolo[2,3-b]pyridin-6-yl)cyclopropanecarboxamide] | 20 to 200
12 | N#CC1(CS(=O)(=O)NC2CC=C(c3cc(NC(=O)C4CC4)nc4[nH]ccc34)CC2)CC1 (stereo not drawn) [Example 157, N-(4-(4-(((1-cyanocyclopropyl)methyl)sulfonamido)cyclohex-1-en-1-yl)-1H-pyrrolo[2,3-b]pyridin-6-yl)cyclopropanecarboxamide] | < 20
